{"source": "the METLIN SMRT retention time set (Domingo-Almenara et al. 2019)", "data": [{"assay": "gradient 5% acetonitrile 3 min, to 50% in 2 min, to 85% in 15 min, held 3 min, 100 µL/min", "settings": "column: Zorbax Extend-C18 2.1 x 50 mm; eluents: water / acetonitrile, 0.1% formic acid", "how_it_was_run": "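Pure standards were analyzed in mixtures of ~100 molecules using HPLC coupled to a quadrupole time-of-flight mass spectrometer, in both positive and negative ionization mode. Separation used a Zorbax Extend-C18 column (2.1 × 50 mm, 1.8 μm) at 100 μL/min, with water and acetonitrile each containing 0.1% formic acid. Dead and dwell volumes were 40 μL and 900 μL, and data were collected over 3 months. Retention time was read from computationally picked adduct peaks, each inspected manually.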", "units": {"RP-LC retention time": "s"}, "values": [{"smiles": "CN(C)S(=O)(=O)c1ccc(C(=O)Nc2nnc(-c3cc4ccccc4o3)o2)cc1", "RP-LC retention time": 789}, {"smiles": "O=C(NC1CC1)[C@@H]1C[C@H](Oc2ccccc2)CN1C(=O)C1CC=CC1", "RP-LC retention time": 755}, {"smiles": "CCc1nn2c(CNS(=O)(=O)Cc3ccc(Cl)cc3)c(-c3ccccc3)nc2s1", "RP-LC retention time": 1020}, {"smiles": "COC(=O)CSCC(=O)Nc1nccs1", "RP-LC retention time": 610}, {"smiles": "COc1ccc(S(=O)(=O)N2CCCC(C(=O)N(C)Cc3ccccc3)C2)cc1OC", "note": "(centres undefined)", "RP-LC retention time": 859}, {"smiles": "O=C(Cn1cccc(-c2nc(-c3ccc(Cl)cc3)no2)c1=O)N1CCCc2ccccc21", "RP-LC retention time": 1040}, {"smiles": "COc1ccc(CNc2c(-c3nc(C4CC4)no3)cnc3nc(C)ccc23)cc1OC", "RP-LC retention time": 683}, {"smiles": "CC(C)Oc1ccc(-c2noc(Cc3nnc(-c4ccc(F)cc4)o3)n2)cc1", "RP-LC retention time": 1110}, {"smiles": "Cc1noc(C)c1CCC(=O)N1CCCn2ccnc2C1C1CCCC1", "note": "(centres undefined)", "RP-LC retention time": 613}, {"smiles": "O=C(NC1CCc2nnc(C3CC3)n2CC1)c1cccs1", "note": "(centres undefined)", "RP-LC retention time": 589}, {"smiles": "Cc1ccc(C)c(C(=O)N2CCN(c3nc4cccnc4o3)CC2)c1", "RP-LC retention time": 765}, {"smiles": "COCc1nncn1C1CCN(S(=O)(=O)c2cccc(OC)c2)CC1", "RP-LC retention time": 751}, {"smiles": "O=C(NC1CCSC1=O)c1ccccc1", "note": "(centres undefined)", "RP-LC retention time": 638}, {"smiles": "CCOCCCNC(=O)C(C)n1nc(C)c2c(C)n(-c3ccccc3)nc2c1=O", "note": "(centres undefined)", "RP-LC retention time": 721}, {"smiles": "Cc1c(CNCc2cccnc2)c(C(=O)O)c(C)n1Cc1cccc(F)c1", "RP-LC retention time": 618}, {"smiles": "Cc1sc(NC(=O)C(C)(C)C)nc1-c1ccc2c(c1)NC(=O)C(C)O2", "note": "(centres undefined)", "RP-LC retention time": 908}, {"smiles": "CCc1noc(-c2cnc3nc(C)ccc3c2Nc2cccc(OC)c2)n1", "RP-LC retention time": 778}, {"smiles": "Cc1cc(N(C)C)nc(N2CCN(S(=O)(=O)c3ccc(-c4ccccc4)cc3)CC2)n1", "RP-LC retention time": 814}, {"smiles": "CC1CCCN(c2nc(C(=O)NC3CC3)cs2)C1", "note": "(centres undefined)", "RP-LC retention time": 590}, {"smiles": "COc1ccc2c(c1)c(CN1CCCCCCN(C)C(=O)[C@@H]3CCC[C@@H]31)cn2C", "RP-LC retention time": 721}, {"smiles": "CCOC(=O)N1CCN(C(=O)CSc2nccc3c(OC)cccc23)CC1", "RP-LC retention time": 810}, {"smiles": "Cc1ccc(CNC(=O)c2c(C)sc3ccn(CC(C)C)c(=O)c23)o1", "RP-LC retention time": 683}, {"smiles": "Cc1nc(-c2ccccc2OC2CN(S(=O)(=O)c3cccc4nsnc34)C2)no1", "RP-LC retention time": 883}, {"smiles": "O=C(CC1CCNCC1)N1CCC(CCOc2cccnc2)CC1", "RP-LC retention time": 544}, {"smiles": "CCc1cccc(NC(=O)N2C[C@@H](F)C[C@H]2C(=O)N2CCOCC2)c1", "RP-LC retention time": 664}, {"smiles": "CCC(=O)N(C1CCOCC1)C1CCN(S(=O)(=O)c2cc(F)ccc2C)CC1", "RP-LC retention time": 864}, {"smiles": "Cc1ccc(C)c(NC(=O)N2CCC(c3nc(C(=O)N(C)C)c(C)o3)CC2)c1", "RP-LC retention time": 711}, {"smiles": "O=C(c1nnc(-c2ccc(S(=O)(=O)N3CCCCC3)cc2)o1)N1CCN(c2ccccc2)CC1", "RP-LC retention time": 1080}, {"smiles": "Cn1c(C2CCN(C(=O)c3ccsc3)C2)nc2cccnc21", "note": "(centres undefined)", "RP-LC retention time": 606}, {"smiles": "COc1ccc(CCNC(=O)c2cc3c(=O)n(C)c(=O)n(C)c3s2)cc1OC", "RP-LC retention time": 668}, {"smiles": "CC1(C(=O)NCc2ccc(Cl)cc2)CN(S(C)(=O)=O)CC(=O)N1CCCc1ccccc1", "note": "(centres undefined)", "RP-LC retention time": 953}, {"smiles": "CCn1cc(S(=O)(=O)N2CCc3ccccc3C2)c2cccnc21", "RP-LC retention time": 950}, {"smiles": "Cc1ccc(S(=O)(=O)N(C)CC2CCOCC2)cc1F", "RP-LC retention time": 850}, {"smiles": "CN(CCc1noc(-c2ccc(C(=O)N3CCCCC3)cc2)n1)C(=O)C1CC1", "RP-LC retention time": 742}, {"smiles": "Cc1cccc(N2CCN(C(=O)c3cn(-c4cc(N5CCSCC5)ncn4)cn3)CC2)c1", "RP-LC retention time": 932}, {"smiles": "COc1cccc(-c2noc(C3CCCN3C(=O)NCc3ccco3)n2)c1", "note": "(centres undefined)", "RP-LC retention time": 615}, {"smiles": "CCn1cc(-c2ccc(Cl)cc2)cc1C(=O)N1CCC2(CC1)OCCO2", "RP-LC retention time": 1040}, {"smiles": "Cn1ccc2cc(CCC(=O)N3CCCC3)ccc21", "RP-LC retention time": 789}, {"smiles": "CN1C(=O)COc2ccc(-c3csc(NC(=O)c4ccc(Br)cc4)n3)cc21", "RP-LC retention time": 1040}, {"smiles": "O=C(CSCc1ccccc1)N1CCC(c2nnc(C(F)(F)F)o2)CC1", "RP-LC retention time": 857}, {"smiles": "CCOc1ccc(NC(=O)CCSc2nnc(C)s2)cc1", "RP-LC retention time": 709}, {"smiles": "O=C(Cc1c[nH]c2ccccc12)NC1CCN(c2cc(-c3ccc(Cl)cc3)[nH]n2)C1", "note": "(centres undefined)", "RP-LC retention time": 743}, {"smiles": "CCc1nc(-c2cccc(-c3noc(CNS(=O)(=O)c4ccc(F)cc4)n3)c2)cs1", "RP-LC retention time": 1060}, {"smiles": "CC1CCCCN1CCCNC(=O)CCC(=O)N1CCc2c(c(C(=O)N3CCCCC3)nn2C)C1", "note": "(centres undefined)", "RP-LC retention time": 578}, {"smiles": "Cc1oc(-c2[nH]ncc2C(=O)N2CCCCC2)cc1S(=O)(=O)Nc1ccc(F)cc1", "RP-LC retention time": 738}, {"smiles": "O=C(C1CCCN(c2ccc(N3CCOCC3)nn2)C1)N1CCN(c2ccccc2)CC1", "note": "(centres undefined)", "RP-LC retention time": 635}, {"smiles": "COCCn1cc(C(=O)NCc2c(F)cccc2F)c2nn(-c3ccccc3)c(=O)c-2c1", "RP-LC retention time": 809}, {"smiles": "O=C(COc1ccc(F)cc1)N1CCN(c2ccc(=O)n(-c3ccc(Cl)cc3)n2)CC1", "RP-LC retention time": 874}, {"smiles": "COC1CCC12CCN(S(=O)(=O)c1ccc(C)cc1)CC2", "note": "(centres undefined)", "RP-LC retention time": 1020}, {"smiles": "O=C(CSc1nnc(-c2ccncc2)o1)NCc1ccc2c(c1)OCO2", "RP-LC retention time": 596}, {"smiles": "Cc1cc(-n2c(C)nc3ccccc3c2=O)ccc1NC(=O)CCC1CCCC1", "RP-LC retention time": 892}, {"smiles": "N=c1nc(N2CCCCC2)cc(N)n1O", "RP-LC retention time": 676}, {"smiles": "O=C(Nc1nc(-c2ccccc2)cs1)NC1CCCCC1", "RP-LC retention time": 991}, {"smiles": "Cn1nnnc1SCC(=O)NCCn1nc(-c2cccs2)ccc1=O", "RP-LC retention time": 611}, {"smiles": "Cc1noc(C)c1CCC(=O)N1CCN(Cc2csc(-c3ccccc3)n2)CC1", "RP-LC retention time": 576}, {"smiles": "Cc1ccc(CNC(=O)c2ccc3c(c2)Sc2ncccc2C(=O)N3C)cc1", "RP-LC retention time": 796}, {"smiles": "Cc1nc(-c2csc(S(=O)(=O)N3CCC(C(=O)N4CCc5ccccc5C4)CC3)c2)no1", "RP-LC retention time": 1050}, {"smiles": "COc1cc(C)nc(-n2nc(C)cc2OC)n1", "RP-LC retention time": 711}, {"smiles": "Cc1cc(NCc2ccccn2)n2ncc(-c3ccccc3)c2n1", "RP-LC retention time": 706}, {"smiles": "CC(C)CC(=O)Nc1ccc(-n2cnc(C(=O)N3CCN(c4ccccc4)CC3)c2)nc1", "RP-LC retention time": 819}, {"smiles": "O=C(O)c1cn2ccnc(-c3ccccc3)c2n1", "RP-LC retention time": 644}, {"smiles": "COc1cccc(NC(=O)Cn2c(N3CCOCC3)nc(C)cc2=O)c1", "RP-LC retention time": 652}, {"smiles": "CSc1cccc(Nc2c(C(=O)N3CCOCC3)cnc3nc(C)ccc23)c1", "RP-LC retention time": 606}, {"smiles": "CC(C)CC(C(=O)N1CCN(c2ccccn2)CC1)N1Cc2ccccc2C1=O", "note": "(centres undefined)", "RP-LC retention time": 650}, {"smiles": "CC1CCN(S(=O)(=O)c2nn(C)cc2C(=O)NCc2cc(F)cc(F)c2)CC1", "RP-LC retention time": 969}, {"smiles": "Cc1nn(-c2ccc(F)cc2)c(-n2cccc2)c1C(=O)N1CCN(c2ccccn2)CC1", "RP-LC retention time": 650}, {"smiles": "CCCc1noc(CN2N=C(C(=O)N3CCC(C)CC3)S(=O)(=O)c3ccccc32)n1", "RP-LC retention time": 954}, {"smiles": "COc1ccc(-n2ncc3c(=O)n(Cc4nc(-c5ccc(Cl)c(F)c5)no4)cnc32)cc1", "RP-LC retention time": 1090}, {"smiles": "CCCc1cc(NCCN(C)C)n2ncc(-c3ccccc3)c2n1", "RP-LC retention time": 660}, {"smiles": "COc1cccc(CCC(=O)N2C[C@@H]3C[C@H](NS(C)(=O)=O)[C@H]2C3)c1", "RP-LC retention time": 566}, {"smiles": "Cc1ccc(CS(=O)Cc2ccc(C(=O)N3CCN(c4ccccn4)CC3)o2)cc1", "note": "(centres undefined)", "RP-LC retention time": 619}, {"smiles": "Cc1cc(C)c(S(=O)(=O)N2CCN(Cc3cccc(F)c3)C3(CCOCC3)C2)c(C)c1", "RP-LC retention time": 973}, {"smiles": "CCn1cc(-c2nc(C(=O)NCc3cc(F)cc(F)c3)cs2)c2cccnc21", "RP-LC retention time": 1030}, {"smiles": "O=C(N[C@H]1C[C@@H]2C[C@H]1N(S(=O)(=O)c1ccc3c(c1)OCCO3)C2)c1cccs1", "RP-LC retention time": 816}, {"smiles": "COc1ncccc1CNS(=O)(=O)c1ccc(C)cc1", "RP-LC retention time": 817}, {"smiles": "COc1cc(OC)cc(C(=O)N2CCCC2c2nc(-c3ccc(OC)c(OC)c3)no2)c1", "note": "(centres undefined)", "RP-LC retention time": 879}, {"smiles": "O=C(Cc1csc(-c2ccccc2)n1)Nc1nc(-c2ccccc2)cs1", "RP-LC retention time": 1130}, {"smiles": "COc1cc(NC(=O)N2CCC(n3c(C(F)(F)F)nc4cccnc43)CC2)cc(OC)c1", "RP-LC retention time": 895}, {"smiles": "COc1ccc(-c2noc(Cn3c(=O)n(CC(C)C)c(=O)c4ccccc43)n2)cc1OC", "RP-LC retention time": 1050}, {"smiles": "CN1c2cc(F)ccc2C(=O)NC12CCN(C(=O)Cc1ccccc1Cl)CC2", "RP-LC retention time": 783}, {"smiles": "Cc1ccc(-c2noc(-c3cccc(S(=O)(=O)Nc4ccccc4)c3)n2)cc1", "RP-LC retention time": 1200}, {"smiles": "COc1ccc(-c2nnc(-c3ccccc3)o2)cc1S(=O)(=O)Nc1cccnc1", "RP-LC retention time": 725}, {"smiles": "COc1cccc(-c2nc(-c3ccc(S(=O)(=O)N4CCCC4)cc3)no2)c1", "RP-LC retention time": 1180}, {"smiles": "CCS(=O)(=O)N1CC(=O)N(c2ccc(C)c(C)c2)C(C)(C(=O)NCc2ccccc2)C1", "note": "(centres undefined)", "RP-LC retention time": 860}, {"smiles": "COc1ccc(Cl)cc1NS(=O)(=O)c1cc2n(c1)CCN(C(C)C)C2=O", "RP-LC retention time": 803}, {"smiles": "O=C(NCCC1CCN(C(=O)Nc2ccccc2F)CC1)c1ccoc1", "RP-LC retention time": 713}, {"smiles": "CNC(=O)[C@H]1O[C@@H](n2cnc3c(N)ncnc32)C(O)[C@H]1O", "note": "(some centres undefined)", "RP-LC retention time": 621}, {"smiles": "CCC1CN(C(=O)N2CCC(C(=O)NCCCN3CCN(C)CC3)CC2)c2cc(C)ccc2O1", "note": "(centres undefined)", "RP-LC retention time": 617}, {"smiles": "O=C(CCC1CCN(c2cc(NC3CC3)ncn2)CC1)NCc1cc(F)cc(F)c1", "RP-LC retention time": 673}]}]}
